Measurements taken from patent publication US4624950A, “Method for treating atherosclerosis hyperlipidema, lipid deposition on arterial walls, or raising the ratio of high density lipoprotein cholesterol to total cholesterol in serum” (Nissan Chemical Industries Ltd., priority 1983, dated 1986).

Experiments:
normal rats = assay: Activities against serum lipid, degree of hepatomegaly and GOT/GPT in normal rats (Test 5); assay type: in vivo, rat (male S.D.); details: 300 mg/kg/day, seven days
Method: It is administered from once to three times per day. The dose may of course be varied depending upon the age, the weight or the condition of illness of the patient. […] In the following tests, the fractionation of lipoproteins was conducted by a dextran sulfate-MgCl2 precipitation method.
Cholesterol in serum was measured by means of a cholesterol measuring kit (Cholesterol C-Test Wako, manufactured by Wako Junyaku Co., Ltd.), and cholesterol in HDL was measured by means of NC Hi-Set, manufactured by Nippon Chemiphar Co., Ltd. The quantitative analysis of triglyceride was conducted by means of a triglyceride measuring kit (Triglyceride C-II-Test Wako, manufactured by Wako Junyaku Co., Ltd.).
Further, the change rate in the following Tables, was calculated by the following equation.
Change rate(%)=(A-B/A)×100
where A is the amount of serum lipids (mg/dl) of the control group, and B is the amount of serum lipids (mg/dl) of the group to which the therapeutic agent was administered.
(§1) The activities against serum lipid, the degree of hepatomegaly and the hepatic drug metabolizing systems of normal rats
(§2) Male S.D. rats (6 weeks old) were divided into groups of 5 rats each. The test compounds suspended in 5% gum arabic were given to the rats once a day for seven days in a daily dose of 300 mg/kg. Then, the rats were fasted for one day, blood samples were taken, and the total cholesterol, triglyceride, HDL-cholesterol in the serum were quantitatively analyzed. Further, the liver weight was measured, and the degree of hepatomegaly was determined by comparing the weight ratio per 100 g of the body weight with that of the control group. Furthermore, GOT and GPT values were measured, and the activities of cytochrome P-450 and glutathione related enzymes were also measured. These values were compared with those of the control groups to investigate any abnormality.

[1] = test system: Escherichia coli (WP2UVrA); details: up to 5000 μg/Plate, absence or presence of S-9 mix of rat liver
Method: The mutagenicity was tested by using Escherichia coli (WP2UVrA) and Salmonella (TA98, TA100, TA1535 and TA1538) in the absence or presence of a drug metabolizing enzymes S-9 mix of rat liver.

[2] = test system: glutathione related enzymes; assay: Effect on glutathione related enzymes of normal rats (Test 5); assay type: in vivo, rat (male S.D.); details: 300 mg/kg/day, seven days
Method: as §1, §2

[3] = test system: Triton-induced hyperlipidemic rats; assay: Antihyperlipidemic activity in Triton-induced hyperlipidemic rats, method B (43 hours) (Test 2); assay type: in vivo, rat (male S.D.)
Method: Cholesterol in serum was measured by means of a cholesterol measuring kit (Cholesterol C-Test Wako, manufactured by Wako Junyaku Co., Ltd.), and cholesterol in HDL was measured by means of NC Hi-Set, manufactured by Nippon Chemiphar Co., Ltd. The quantitative analysis of triglyceride was conducted by means of a triglyceride measuring kit (Triglyceride C-II-Test Wako, manufactured by Wako Junyaku Co., Ltd.). Further, the change rate in the following Tables, was calculated by the following equation. Change rate(%)=(A-B/A)×100 where A is the amount of serum lipids (mg/dl) of the control group, and B is the amount of serum lipids (mg/dl) of the group to which the therapeutic agent was administered. The antihyperlipidemic activity in Triton-induced hyperlipidemic rats Male S.D. rats weighing 230-250 g (7 weeks old) were divided into groups of 5 rats each and injected with a physiological saline solution of Triton Wr-1339 in a dose of 250 mg/kg (5 ml/kg) i.v. through the tail vein. […] The test compounds suspended in 0.5% CMC-Na were given to the rats in an amount of 2 ml/kg via stomach tube 1 hour before and 5 hours after (in the case of method A) or 1 hour before and 23 hours after (in the case of method B) the injection of Triton solution. Control rats received the same volume of the vehicle. The animals were fasted during the experimental period. The total cholesterol and triglyceride in the serum were measured.

[4] = test system: experimental atherosclerosis in rabbits induced by cholesterol diet; assay: Effect on experimental atherosclerosis in rabbits induced by cholesterol diet (Test 4); assay type: in vivo, rabbit (male)
Method: The effect of the compound of the formula I on experimental atherosclerosis in rabbits induced by cholesterol diet
Twenty-five male rabbits weighing 1.8-2.0 kg were used. They were fed with basic chow (Nippon clea, CR-3) for a stabilizing period of 5 days. After this period, they were fed with the chow containing 1% cholesterol, 100 g per head a day for a week (7 days) and plasma cholesterol was measured using a blood sample collected from acuricle vein.
According to the results of cholesterol values measured, 14 animals of high cholesterol plasma level were selected. They were divided into two groups to have nearly equal means and S.D. values of plasma cholesterol. One group of 7 rabbits was fed with the chow containing 1% cholesterol and another group of 7 rabbits was fed with the chow containing 1% cholesterol and 0.1% compound of the formula I in an amount of 100 g per head a day for 8 weeks.
Rabbits were sacrificed at the end of 8 weeks. Aortic arch and thoracic aorta were excised, and macroscopical changes were examined using the Sudan III stain method. According to the results of gross observation of the internal surface stained by Sudan III, the ratios of the atherosclerotic plaque area (the area stained by Sudan III) to the whole internal surface area were calculated. The ratio of inhibition of atherosclerosis of the compound of the formula I was obtained by comparing the average value with the value of the control.

[5] = 0.1% in 1% cholesterol chow, 8 weeks, vs control
[6] = 0.1% in 1% cholesterol chow, 100 g per head a day, 8 weeks

`CN1C(=S)SC(c2ccccc2)N(C)C1c1ccccc1` (stereo not shown) [Compound of the formula I, 3,5-dimethyl-4,6-diphenyl-tetrahydro-2H-1,3,5-thiadiazine-2-thione] was tested, and the “Hepatic insufficiency from GOT and GPT values (in words)” value (normal rats) was “No hepatic insufficiency was observed”, the “Hepatomegaly (in words)” value (normal rats) was “no substantial hepatomegaly” and the “LDL-cholesterol reduction (in words)” value (normal rats) was “ramarkably reduces LDL-cholesterol”. The “Serum lipid, HDL-Chol” value (normal rats) was 29.2 mg/dL, the “Serum lipid, TG” value (normal rats) was 37.5 mg/dL and the “Serum lipid, Total-Chol” value (normal rats) was 39.2 mg/dL. For the same compound, the “Change rate, HDL-Chol” value (normal rats; vs control) was -1.0%, the “Change rate, TG” value (normal rats; vs control) was -21.0% and the “Change rate, Total-Chol” value (normal rats; vs control) was -16.2%. The Degree of hepatomegaly (normal rats; vs control) was “+7.0%”, the Mutagenicity [1] was “did not show any mutagenicity” and the “Abnormalities in activity against glutathione related enzymes (in words)” value [2] was “no abnormalities were observed”. For the same compound, the “Change rate after 43 hours, Chol” value ([3]; 150 mg/kg p.o.) was -43.5%, the “Change rate after 43 hours, TG” value ([3]; 150 mg/kg p.o.) was -65.7% and the “Lipid reducing activity (in words)” value ([3]; method B) was “distinc lipid reducing activity”. For the same compound, the “Ratio of inhibition of atherosclerosis (Ratio of Improvement), Aortic arch” value [4, 5] was 13.8%, the “Ratio of inhibition of atherosclerosis (Ratio of Improvement), Thoracic aorta” value [4, 5] was 67.7% and the “Ratio of inhibition of atherosclerosis (Ratio of Improvement), Total aorta” value [4, 5] was 45.3%. The “Atherosclerotic plaque area stained by Sudan III, Aortic arch” value [4, 6] was 77.7%, the “Atherosclerotic plaque area stained by Sudan III, Thoracic aorta” value [4, 6] was 11.0% and the “Atherosclerotic plaque area stained by Sudan III, Total aorta” value [4, 6] was 26.3%. The “Inhibition of experimental atherosclerosis (in words)” value ([4]; 1% cholesterol diet) was “inhibits experimental atherosclerosis”.
